Laboratory results from ChEMBL document CHEMBL5108059, “Discovery of 2-Methyl-2-(4-(2-methyl-8-(1H-pyrrolo[2,3-b]pyridin-6-yl)-1H-naphtho[1,2-d]imidazol-1-yl)phenyl)propanenitrile as a Novel PI3K/mTOR Inhibitor with Enhanced Antitumor Efficacy In Vitro and In Vivo” (J Med Chem, 2022).

Legend:
[1] = system: SW-620; test: Antitumor activity against human SW620 cells xenografted in BALB/c nude mouse assessed as tumor growth inhibition at 30 mg/kg, IG administered daily for 30 days and measured every 2 days relative to control; type: functional; conditions: SW-620, po, 720 h, time 30 day, read-out: TGI
[2] = system: NCI-H3122; test: Antiproliferative activity against human NCI-H3122 cells assessed as inhibition of cell growth incubated for 48 to 72 hrs by MTT assay; type: functional, cell-based
[3] = system: HT-29; test: Antiproliferative activity against human HT-29 cells with PIK3CA mutation assessed as inhibition of cell growth incubated for 48 to 72 hrs by MTT assay; type: functional, cell-based
[4] = system: HCT-15; test: Antiproliferative activity against human HCT-15 cells with PIK3CA mutation assessed as inhibition of cell growth incubated for 48 to 72 hrs by MTT assay; type: functional, cell-based
[5] = system: HeLa; test: Antiproliferative activity against human HeLa cells assessed as inhibition of cell growth incubated for 48 to 72 hrs by MTT assay; type: functional, cell-based
[6] = system: SW-620; test: Antiproliferative activity against human SW620 cells assessed as inhibition of cell growth incubated for 48 to 72 hrs by MTT assay; type: functional, cell-based
[7] = system: HeLa; test: Antitumor activity against human HeLa cells xenografted in BALB/c nude mouse assessed as tumor growth inhibition at 30 mg/kg, IG administered daily for 30 days and measured every 2 days relative to control; type: functional; conditions: po, 720 h, time 30 day, read-out: TGI
[8] = system: NCI-H446; test: Antiproliferative activity against PTEN-null human NCI-H446 cells assessed as inhibition of cell growth incubated for 48 to 72 hrs by MTT assay; type: functional, cell-based
[9] = target: Phosphatidylinositol 4,5-bisphosphate 3-kinase catalytic subunit alpha isoform (Homo sapiens, UniProt P42336); test: Inhibition of PI3Kalpha (unknown origin) using PIP2 as substrate incubated for 1 hr in presence of ATP by Kinase Glo luminescence assay
[10] = target: Serine/threonine-protein kinase mTOR (Homo sapiens, UniProt P42345); test: Inhibition of N-terminal FLAG-tagged recombinant human mTOR (1362 to end residue) using ULight-4EBP1 peptide as substrate incubated for 30 mins in presence of ATP by Lance ultra assay
[11] = target: T1, Phosphatidylinositol 4,5-bisphosphate 3-kinase catalytic subunit delta isoform (Homo sapiens, UniProt O00329); test: Inhibition of PI3Kdelta (unknown origin) using PIP2 as substrate incubated for 2 hrs in presence of ATP by Kinase Glo luminescence assay
T1 sequence (O00329 whole entry): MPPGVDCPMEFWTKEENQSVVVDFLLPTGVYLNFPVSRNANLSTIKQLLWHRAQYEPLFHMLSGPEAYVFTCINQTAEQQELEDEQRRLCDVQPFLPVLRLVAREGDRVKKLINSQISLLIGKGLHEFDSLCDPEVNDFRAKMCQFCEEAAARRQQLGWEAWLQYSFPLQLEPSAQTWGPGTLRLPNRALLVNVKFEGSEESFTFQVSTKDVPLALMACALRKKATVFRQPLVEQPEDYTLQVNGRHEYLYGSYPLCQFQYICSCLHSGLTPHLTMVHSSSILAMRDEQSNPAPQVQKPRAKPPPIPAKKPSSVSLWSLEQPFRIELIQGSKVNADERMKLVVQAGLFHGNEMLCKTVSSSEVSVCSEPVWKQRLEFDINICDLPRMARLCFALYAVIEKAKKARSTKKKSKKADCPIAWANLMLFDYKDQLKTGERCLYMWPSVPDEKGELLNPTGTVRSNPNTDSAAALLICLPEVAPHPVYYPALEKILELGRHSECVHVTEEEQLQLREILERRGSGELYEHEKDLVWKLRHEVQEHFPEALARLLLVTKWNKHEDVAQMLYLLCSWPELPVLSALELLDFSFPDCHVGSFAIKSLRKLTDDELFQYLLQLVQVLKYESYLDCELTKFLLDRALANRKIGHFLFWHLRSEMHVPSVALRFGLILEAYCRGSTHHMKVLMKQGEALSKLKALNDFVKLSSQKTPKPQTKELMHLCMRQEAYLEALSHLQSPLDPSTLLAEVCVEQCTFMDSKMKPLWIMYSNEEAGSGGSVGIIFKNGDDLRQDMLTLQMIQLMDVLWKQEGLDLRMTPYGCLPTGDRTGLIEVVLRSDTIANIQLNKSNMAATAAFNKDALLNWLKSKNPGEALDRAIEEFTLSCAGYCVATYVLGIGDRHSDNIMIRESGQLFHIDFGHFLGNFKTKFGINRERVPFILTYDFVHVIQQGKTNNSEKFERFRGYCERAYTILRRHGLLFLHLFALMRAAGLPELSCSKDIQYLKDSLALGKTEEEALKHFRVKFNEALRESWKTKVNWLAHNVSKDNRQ

Phosphatidylinositol 4,5-bisphosphate 3-kinase catalytic subunit alpha isoform, sequence (P42336 whole entry, canonical isoform): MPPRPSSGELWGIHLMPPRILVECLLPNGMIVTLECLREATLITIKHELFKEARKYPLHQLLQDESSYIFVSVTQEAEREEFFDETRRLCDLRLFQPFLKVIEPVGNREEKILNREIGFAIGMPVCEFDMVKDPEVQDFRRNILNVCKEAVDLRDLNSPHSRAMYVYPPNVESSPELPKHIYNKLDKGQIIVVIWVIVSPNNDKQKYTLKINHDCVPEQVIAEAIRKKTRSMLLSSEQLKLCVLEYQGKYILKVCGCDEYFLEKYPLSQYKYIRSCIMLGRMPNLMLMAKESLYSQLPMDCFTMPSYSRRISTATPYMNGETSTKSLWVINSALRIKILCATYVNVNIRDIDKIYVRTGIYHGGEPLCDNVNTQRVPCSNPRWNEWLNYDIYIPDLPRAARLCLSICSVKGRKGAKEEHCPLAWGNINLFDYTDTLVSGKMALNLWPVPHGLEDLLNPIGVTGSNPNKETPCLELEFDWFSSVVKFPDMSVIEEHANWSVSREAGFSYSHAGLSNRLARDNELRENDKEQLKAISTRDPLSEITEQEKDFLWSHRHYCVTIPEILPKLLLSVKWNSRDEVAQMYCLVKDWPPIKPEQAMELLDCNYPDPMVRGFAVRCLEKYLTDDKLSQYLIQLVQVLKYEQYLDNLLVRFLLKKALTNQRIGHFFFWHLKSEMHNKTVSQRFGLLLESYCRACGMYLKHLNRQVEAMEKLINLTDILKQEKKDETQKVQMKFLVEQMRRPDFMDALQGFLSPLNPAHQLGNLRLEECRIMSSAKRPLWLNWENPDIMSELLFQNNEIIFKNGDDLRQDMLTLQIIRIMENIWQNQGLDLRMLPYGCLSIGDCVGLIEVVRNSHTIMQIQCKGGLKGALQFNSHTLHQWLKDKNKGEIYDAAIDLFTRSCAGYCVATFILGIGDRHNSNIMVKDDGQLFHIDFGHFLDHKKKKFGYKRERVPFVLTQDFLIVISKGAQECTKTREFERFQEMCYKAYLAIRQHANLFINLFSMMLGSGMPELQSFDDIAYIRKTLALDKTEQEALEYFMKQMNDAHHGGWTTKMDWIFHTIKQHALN

IC50 [2] [µM] | IC50 [3] [µM] | IC50 [4] [µM] | IC50 [5] [µM] | IC50 [6] [µM] | IC50 [8] [µM] | IC50 [9] [µM] | IC50 [10] [µM] | IC50 [11] [µM] | SMILES | inhibition in vivo at 30 mg/kg [1] [%] | inhibition in vivo at 30 mg/kg [7] [%]
0.96 | 1.01 | 0.91 | 1.09 | 0.87 | 0.87 |  |  |  | Cn1c(=O)n(-c2ccc(C(C)(C)C#N)cc2)c2c3cc(-c4cnc5ccccc5c4)ccc3ncc21 [DACTOLISIB] | 51.7 | 53.3
1.96 | 1.87 | 1.43 | 2.35 | 1.65 | 2.78 | 0.0796 | 0.102 | 0.164 | Cc1nc2cnc3ccc(-c4cnc5[nH]ccc5c4)cc3c2n1[C@H](C)c1ccccc1 |  | 
3.73 | 3.36 | 2.75 | 2.16 | 3.62 | 7.82 | 0.0892 | 0.244 | 0.133 | Cc1nc2cnc3ccc(-c4ccc(O)cc4)cc3c2n1-c1ccc(F)cc1 |  | 
1.31 | 1.16 | 1.29 | 1.92 | 0.97 | 2.1 | 0.0414 | 0.0764 | 0.0552 | Cc1nc2cnc3ccc(-c4cnc5[nH]ccc5c4)cc3c2n1-c1ccc(F)nc1 |  | 
1.33 | 0.82 | 0.75 | 0.96 | 1.87 | 1.51 | 0.0263 | 0.0672 | 0.0172 | COc1ccc(-n2c(C)nc3cnc4ccc(-c5cnc6[nH]ccc6c5)cc4c32)cc1 |  | 
1.08 | 1.02 | 1.36 | 0.94 | 0.93 | 1.47 | 0.0693 | 0.114 | 0.156 | Cc1nc2cnc3ccc(-c4cnc5[nH]ccc5c4)cc3c2n1-c1ccc(N2CCOCC2)cc1 |  | 
1.03 | 1.25 | 0.97 | 1.08 | 1.16 | 1.39 | 0.0471 | 0.109 | 0.0663 | Cc1nc2cnc3ccc(-c4cnc5[nH]ccc5c4)cc3c2n1-c1ccc(C(F)(F)F)cc1 |  | 
2.05 | 1.25 | 1.13 | 1.82 | 1.28 | 1.65 | 0.0215 | 0.0387 | 0.0289 | Cc1nc2cnc3ccc(-c4cnc5[nH]ccc5c4)cc3c2n1-c1ccc(F)cc1 |  | 
1.97 | 1.71 | 1.04 | 3.51 | 1.61 | 3.02 | 0.14 | 0.0874 | 0.203 | Cc1nc2cnc3ccc(-c4cnc5[nH]ccc5c4)cc3c2n1[C@@H](C)c1ccc(F)cc1 |  | 
